Data reported in PMC10962703 (bioRxiv, 2024).
Where “and” joins values, the source holds several entries; their conditions need not be identical. Identical values can stand only once. Entries after “also recorded” stand apart in the source; their conditions may differ. One block for each molecule: values may come before it.

Key:
human D3R [1] = biological target: T1, human D3R (Homo sapiens, UniProt P35462); assay: D3R-mediated mitogenesis; type: cell-based; settings: for Emax: read-out: D3R mitogenesis Emax
T1 sequence (P35462 whole entry): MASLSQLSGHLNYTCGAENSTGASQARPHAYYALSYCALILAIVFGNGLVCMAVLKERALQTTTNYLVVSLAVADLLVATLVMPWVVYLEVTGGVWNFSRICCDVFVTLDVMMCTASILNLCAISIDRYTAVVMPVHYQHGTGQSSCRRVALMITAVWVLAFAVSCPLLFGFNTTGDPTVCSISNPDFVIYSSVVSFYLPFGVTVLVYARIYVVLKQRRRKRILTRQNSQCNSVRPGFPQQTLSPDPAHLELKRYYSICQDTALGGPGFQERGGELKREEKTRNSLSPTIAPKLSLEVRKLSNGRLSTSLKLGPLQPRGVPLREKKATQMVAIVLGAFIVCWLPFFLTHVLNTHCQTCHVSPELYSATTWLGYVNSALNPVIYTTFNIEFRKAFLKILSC

human D2R [2] = biological target: T2, human D2R (Homo sapiens, UniProt P14416); settings: [3H]-(R)-(+)-7-OH-DPAT
Target sequence in this assay (P14416 whole entry): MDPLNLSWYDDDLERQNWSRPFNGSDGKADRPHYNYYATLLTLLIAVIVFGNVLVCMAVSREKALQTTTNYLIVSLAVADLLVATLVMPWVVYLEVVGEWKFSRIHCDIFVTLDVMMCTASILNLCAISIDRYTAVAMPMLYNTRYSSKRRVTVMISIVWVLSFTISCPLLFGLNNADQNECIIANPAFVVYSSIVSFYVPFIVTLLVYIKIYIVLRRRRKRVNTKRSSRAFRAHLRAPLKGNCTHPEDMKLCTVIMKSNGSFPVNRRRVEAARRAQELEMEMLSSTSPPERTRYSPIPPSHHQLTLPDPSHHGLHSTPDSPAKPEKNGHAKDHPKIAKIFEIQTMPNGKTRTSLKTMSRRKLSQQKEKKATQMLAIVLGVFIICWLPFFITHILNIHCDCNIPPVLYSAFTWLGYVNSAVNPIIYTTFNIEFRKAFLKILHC

human D3R [3] = biological target: T1, human D3R; assay: Radioligand competition binding, HEK293 membranes, hD3R; settings: [3H]-(R)-(+)-7-OH-DPAT
[4] = In vivo pharmacokinetics, plasma and brain levels; design: species or system CD1 mice; settings: for Brain Conc.: mean ± SEM, n=3; for Kp at 0.25 h / Kp at 1 h / concentration at 15 min / concentration at 60 min: male, CD1, mouse, 10 mg/kg; for Kp at 0.25 h / Kp at 1 h: brain, iv; for concentration at 15 min / concentration at 60 min: plasma, intravenous
INS-1E cells = assay: Glucose-stimulated insulin secretion; type: cell-based, rat
human D3R [5] = biological target: T1, human D3R; assay: biochemical
human D2R [6] = biological target: T2, human D2R; assay: biochemical
Target sequence in this assay (P14416 whole entry): as above

human D2R [7] = biological target: T2, human D2R; assay: cell-based; type: cell-based; settings: for Emax: read-out: D2R mitogenesis Emax
Target sequence in this assay (P14416 whole entry): as above

[8] = Mouse microsomal stability assay; type: in vitro ADME; settings: mouse liver microsomes + NADPH, 1 µM, 30 min
[9] = tested on: Western diet-fed wild-type C57BL/6J mice; assay: Body weight in diet-induced obesity model; type: in vivo; settings: 10 mg/kg i.p. daily, at 12 weeks
human D2R [10] = biological target: T2, human D2R; type: cell-based
Target sequence in this assay (P14416 whole entry): as above
Target sequence in this assay (P63096 2-354 partner limits assumed): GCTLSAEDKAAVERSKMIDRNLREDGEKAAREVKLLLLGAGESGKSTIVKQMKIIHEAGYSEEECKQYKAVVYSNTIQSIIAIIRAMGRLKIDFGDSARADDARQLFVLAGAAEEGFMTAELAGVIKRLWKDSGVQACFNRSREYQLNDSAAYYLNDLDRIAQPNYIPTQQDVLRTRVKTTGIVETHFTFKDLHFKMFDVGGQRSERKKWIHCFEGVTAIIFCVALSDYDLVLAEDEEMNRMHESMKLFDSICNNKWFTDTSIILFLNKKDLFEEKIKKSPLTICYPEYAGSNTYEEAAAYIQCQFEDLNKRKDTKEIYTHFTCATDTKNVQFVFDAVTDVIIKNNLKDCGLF

[11] = tested on: Western diet-fed wild-type C57BL/6J mice; assay: Oral glucose tolerance testing in diet-induced obesity model; type: in vivo; settings: for fasting blood glucose: 6-h fast
[12] = tested on: Western diet-fed wild-type C57BL/6J mice; assay: Insulin tolerance testing in diet-induced obesity model; type: in vivo; settings: 10 mg/kg i.p. daily, 12 weeks
Sprague-Dawley rats = assay: Intracerebroventricular L-DOPA infusion, plasma glucose and insulin; type: in vivo; settings: 10 mM i.c.v. infusion, 5 µL/h, 3.5 h
human DA D4.4 receptors = biological target: T3, human DA D4.4 receptors (Homo sapiens, UniProt P21917); type: cell-based; settings: inhibition of forskolin-stimulated cAMP formation
T3 sequence (P21917 1-419): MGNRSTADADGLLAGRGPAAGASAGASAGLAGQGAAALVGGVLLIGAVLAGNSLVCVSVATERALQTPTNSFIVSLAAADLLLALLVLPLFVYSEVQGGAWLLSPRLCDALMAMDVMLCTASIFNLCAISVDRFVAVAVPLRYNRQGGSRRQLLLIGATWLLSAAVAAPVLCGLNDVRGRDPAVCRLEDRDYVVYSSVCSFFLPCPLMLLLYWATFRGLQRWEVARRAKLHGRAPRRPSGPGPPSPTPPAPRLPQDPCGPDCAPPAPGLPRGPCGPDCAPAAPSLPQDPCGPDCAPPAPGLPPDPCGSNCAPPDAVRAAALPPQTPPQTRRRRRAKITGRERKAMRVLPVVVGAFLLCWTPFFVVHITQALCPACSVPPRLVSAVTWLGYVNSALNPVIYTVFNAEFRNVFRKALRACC

human D4R = assay: Radioligand competition binding, HEK293 membranes, hD4R; settings: [3H]-(R)-(+)-7-OH-DPAT
[13] = 10 mg/kg i.v., 60 min versus 15 min

SMILES: CC(C)C[C@H]1C(=O)N2CCC[C@H]2[C@]2(O)O[C@](NC(=O)[C@@H]3C=C4c5cccc6[nH]c(Br)c(c56)C[C@H]4[N+](C)(C)C3)(C(C)C)C(=O)N12.[I-] [AB01–60, (6aR,9R)-5-Bromo-9-(((2R,5S,10aS,10bS)-10b-hydroxy-5-isobutyl-2-isopropyl-3,6-dioxooctahydro-8H-oxazolo[3,2-a]pyrrolo[2,1-c]pyrazin-2-yl)carbamoyl)-7,7-dimethyl-4,6,6a,7,8,9-hexahydroindolo[4,3-fg]quinolin-7-ium iodide]
- EC50 (human D3R [1]): 38 ± 11 nM
- diminished potency in D3R-mediated mitogenesis versus unmodified parent (human D3R [1]): 11.2 fold
- Emax (human D3R [1]): 91%
- D3R/D2R ratio of binding affinity (human D2R [2]): 5.57
- diminished D2R binding affinity compared to unmodified parent compound (human D2R [2]): 5.3 fold
- diminished D3R binding affinity compared to unmodified parent compound (human D3R [3]): 8.5 fold
- Brain Conc. ([4]; 10 mg/kg i.v., 15 min): 1282.3 ± 130.7 pmol/g
- plasma levels greater compared to bromocriptine ([4]; 10 mg/kg i.v., 60 min, listed as BrMeI): 8 fold and ~ 8 fold
- Brain Conc. ([4]; 10 mg/kg i.v., 60 min): 651.9 ± 133.7 pmol/g
- Kp at 0.25 h [4]: 0.3 ± 0.03
- Kp at 1 h [4]: 0.51 ± 0.06
- concentration at 15 min [4]: 4260 ± 381 nM
- concentration at 60 min [4]: 1280 ± 71.1 nM
- decrease in GSIS potency versus unmodified parent (INS-1E cells): 57.7 fold
- Ki (human D3R [5]): 17.5 ± 4.9 nM
- Ki (human D2R [6]): 3.14 ± 0.34 nM
- diminished potency in D2R-mediated mitogenesis versus unmodified parent (human D2R [7]): 15.6 fold
- Emax (human D2R [7]): 88%

SMILES: CN[C@@H]1Cc2cccc3[nH]c(=O)n(c23)C1 [Sumanirole, sumanirole]
- EC50 (human D3R [1]): 224 ± 24 nM
- Emax (human D3R [1]): 180%
- Emax (human D2R [7]): 110%

SMILES: CC(C)C[C@H]1C(=O)N2CCC[C@H]2[C@]2(O)O[C@](NC(=O)[C@@H]3C=C4c5cccc6[nH]c(Br)c(c56)C[C@H]4N(C)C3)(C(C)C)C(=O)N12 [Bromocriptine, bromocriptine]
- EC50 (human D3R [1]): 3.4 ± 1.1 nM
- % drug remaining [8]: entirely metabolized
- % drug remaining ([8]; listed as bromocriptine): complete disappearance
- body weight versus vehicle [9]: neither systemic bromocriptine nor BrMeI treatments had significant effects on weight; also recorded: no significant effect
- less efficacy than DA in Gαi1 recruitment to D2R (human D2R [10]): 47%
- D3R/D2R ratio of binding affinity (human D2R [2]): 3.46
- Brain Conc. ([4]; 10 mg/kg i.v., 15 min): 995.2 ± 188.0 pmol/g
- Brain Conc. ([4]; 10 mg/kg i.v., 60 min): 71.1 ± 2.3 pmol/g
- decrease in brain level by 60 min post-administration [4, 13]: 92.9%
- decrease in plasma level by 60 min post-administration [4, 13]: 88.2%
- Kp at 0.25 h [4]: 0.74 ± 0.11
- Kp at 1 h [4]: 0.45 ± 0.05
- concentration at 15 min [4]: 1340 ± 52.2 nM
- concentration at 60 min [4]: 159 ± 15 nM
- Ki (human D3R [5]): 2.05 ± 0.56 nM
- glucose tolerance (OGTT) versus vehicle ([11]; 10 mg/kg i.p. daily, 12 weeks): significant improvements in glucose tolerance; also recorded: improvement in glucose tolerance
- fasting blood glucose ([11]; 10 mg/kg i.p. daily, 12 weeks): significantly lower fasting blood glucose
- fasting blood glucose ([11]; 10 mg/kg i.p. daily, 12 weeks, listed as bromocriptine): significantly lower fasting glucose
- glucose tolerance (OGTT) versus i.c.v. vehicle ([11]; i.c.v. daily, 8 weeks (10 mg/kg)): did not significantly modify glucose tolerance; also recorded: no significant effect on glucose tolerance
- glucose tolerance ([11]; systemic administration, 8 weeks, data not shown): sufficient to improve glucose tolerance
- Ki (human D2R [6]): 0.59 ± 0.17 nM
- Emax (human D2R [7]): 99%
- insulin sensitivity / blood glucose during ITT versus vehicle ([12]; 1.5 U/kg insulin): significant improvements in insulin sensitivity
- plasma insulin during ITT ([12]; initial 15 min of ITT): significantly enhanced plasma insulin levels

SMILES: N[C@@H](Cc1ccc(O)c(O)c1)C(=O)O [L-DOPA]
- plasma glucose versus saline vehicle (Sprague-Dawley rats): did not significantly impact
- plasma insulin versus saline vehicle (Sprague-Dawley rats): did not significantly impact

- diminished potency in D4R cAMP assay compared to unmodified parent (human DA D4.4 receptors): 731.9 fold
- functional behaviour in D4R cAMP assay (human DA D4.4 receptors; relative to (−)-quinpirole): partial agonists
- loss of D4R binding affinity compared to unmodified parent (human D4R): 61.7 fold
SMILES: Cc1cccc(NC(=O)C[N+]2(C)CCC(c3ccccc3)CC2)c1.[I-] (stereo not shown) [AB01–102, 1-Methyl-1-(2-oxo-2-(m-tolylamino)ethyl)-4-phenylpiperidin-1-ium iodide]

SMILES: CCC[N+]1(C)CCC[C@@H]2Cc3n[nH]cc3C[C@H]21.[I-] (stereo partly drawn) [AB01–59, (4aR,8aR)-5-Methyl-5-propyl-4,4a,5,6,7,8,8a,9-octahydro-2H-pyrazolo[3,4-g]quinolin-5-ium iodide]
- decrease in GSIS potency versus unmodified parent (INS-1E cells): 5.9 fold
- reduced efficacy in GSIS versus unmodified parent (decrease) (INS-1E cells): 48.4%
